Results as given in patent US20120046273A1, “COMPOUNDS AND COMPOSITIONS FOR COGNITION-ENHANCEMENT, METHODS OF MAKING, AND METHODS OF TREATING” (MITHRIDION, INC., priority 2009, published 2012).
Structures can show the parent of a compound that is named as a salt.

Legend:
[1] = molecular target: T1, rat M1 receptors (Rattus norvegicus, UniProt P08482); assay: PI turnover (inositol phosphate production) in M1-CHO cells; format: cell-based; settings: for functional selectivity for M1- versus M3-subtype by PI turnover: cell lines expressing individual subtypes of muscarinic receptors; for M1/CHO PI turnover Relative Mean Smax: relative to mean Smax for carbachol (100.0)
T1 construct: host or cells: Chinese Hamster Ovary cells (M1-CHO)
T1 sequence (P08482 1-460): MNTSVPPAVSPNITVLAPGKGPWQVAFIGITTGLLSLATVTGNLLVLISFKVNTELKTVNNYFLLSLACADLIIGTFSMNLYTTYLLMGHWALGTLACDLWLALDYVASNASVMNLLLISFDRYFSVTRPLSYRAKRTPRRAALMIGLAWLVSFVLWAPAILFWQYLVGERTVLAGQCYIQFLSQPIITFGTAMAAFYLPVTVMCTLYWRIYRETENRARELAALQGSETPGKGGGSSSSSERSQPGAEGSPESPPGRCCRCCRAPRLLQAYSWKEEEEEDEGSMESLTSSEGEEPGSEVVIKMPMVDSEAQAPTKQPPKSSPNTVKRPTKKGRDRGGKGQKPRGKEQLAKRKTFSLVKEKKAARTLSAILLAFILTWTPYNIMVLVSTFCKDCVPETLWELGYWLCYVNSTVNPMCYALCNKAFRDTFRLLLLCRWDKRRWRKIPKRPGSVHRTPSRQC
Protocol: (§1) The medium was changed to 70 μL/well of inositol-free DMEM containing 2 mM glutamine, 10% FBS and 10 μCi/ml of [3H]-inositol (PE:cat # NET114A250UC), incubated overnight as above, then 100 μL of a solution of the test compound in HBSS containing 10 mM LiCl and 20 mM HEPES, pH 7.4 was added, incubation was continued for 60 min under the above conditions, and the test was stopped by removing the test compound and replacing with 100 μL of 50 mM formic acid in water at 4° C.

[2] = molecular target: T2, rat M3 receptors (Rattus norvegicus, UniProt P08483); assay: PI turnover (inositol phosphate production) in M3-CHO cells; format: cell-based; settings: relative to mean Smax for carbachol (100.0)
T2 construct: host or cells: Chinese Hamster Ovary cells (M3-CHO)
T2 sequence (P08483 whole entry): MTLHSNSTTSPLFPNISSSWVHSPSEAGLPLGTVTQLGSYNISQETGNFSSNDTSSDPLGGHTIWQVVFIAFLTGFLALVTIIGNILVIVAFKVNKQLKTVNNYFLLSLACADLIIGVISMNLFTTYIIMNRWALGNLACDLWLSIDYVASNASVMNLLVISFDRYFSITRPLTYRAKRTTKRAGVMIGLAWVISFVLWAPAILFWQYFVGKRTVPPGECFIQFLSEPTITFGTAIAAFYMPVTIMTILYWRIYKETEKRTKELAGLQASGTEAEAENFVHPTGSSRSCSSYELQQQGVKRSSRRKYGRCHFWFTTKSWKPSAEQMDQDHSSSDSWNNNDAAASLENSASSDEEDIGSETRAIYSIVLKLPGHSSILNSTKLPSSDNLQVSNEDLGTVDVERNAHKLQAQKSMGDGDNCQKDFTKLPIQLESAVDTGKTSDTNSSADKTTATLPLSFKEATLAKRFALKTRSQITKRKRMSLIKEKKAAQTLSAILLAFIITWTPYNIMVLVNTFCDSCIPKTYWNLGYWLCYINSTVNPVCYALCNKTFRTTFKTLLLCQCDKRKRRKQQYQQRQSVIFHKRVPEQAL
Protocol: as §1

[3] = Brain concentrations in rats after oral gavage; format: in vivo, rat; settings: for Brain Cmax (10 mg/kg po) MCD-386 = 1.00: rat, relative to MCD-386; for penetration into the brain: rats after oral dosing
Protocol: Long-Evans Hooded rats (Charles River: male, 250-350 g) were dosed with solutions of test compounds in PBS by oral gavage. At the desired time after dosing, the animals were anesthetized with isoflurane, and then euthanized by cervical dislocation. Blood was obtained by cardiac puncture, transferred to a 1.5 mL microcentrifuge tube containing 15U Heparin, and the plasma recovered after centrifugation. Brains were dissected, weighed, immediately chilled to 4° C., and homogenized using a PowerGen 125 homogenizer in five volumes of ice-cold 2% formic acid. Proteins were precipitated from plasma and brain homogenate with two and five volumes respectively of ice-cold 2% formic acid and clarified by centrifugation. The supernatant was ultra-filtered by centrifugation through a 3K MWCO spin column (Pall Life Sciences), following the manufacturer's instructions. The concentration of compound in the ultra-filtrate was subjected to reverse-phase liquid chromatography using a 150×2.1 mm Agilent C8 reverse-phase column on a Shimadzu Prominence LC, eluting the compounds with a gradient of 2% to 50% of acetonitrile+0.1% formic acid for compound MI-50,382, or an isocratic flow of 2% acetonitrile+0.1% formic acid for the rest of the compounds listed. The concentration of the compound in the column effluent was measured using an Applied Biosystems API-3200 triple quadrupole mass spectrometer equipped with an electrospray sample injection system. The counts of the characteristic parent and product ions of each test compound were converted to concentration units by comparison with a standard calibration curve.

[4] = Metabolites in serum and urine of dosed rats (LC-MS); format: in vivo; settings: rat serum/plasma or urine, oral dosing; hydrochloride
Protocol: Oxadiazoles disclosed herein as well as other oxadiazoles were investigated to determine the formation of metabolites. Animals were dosed, blood taken, serum prepared, serum proteins precipitated and ultrafiltrates prepared as described in Example 6. In separate experiments, urine was collected from rats for 16-24 hours after dosing, using standard metabolic cages. The urine container and collected urine were maintained at 4° C. Urine was lyophilized, taken back into water. The ultrafiltrate was prepared by adding formic acid to a final concentration of 1% to the urine samples, then filtered through a 0.2 um nylon membrane. The ultrafiltrate was subjected to LC-MS analysis. Instead of measuring the product ions in Q3, manual Q1 scans of the liquid chromatograph were undertaken, seeking parent ions of potential metabolites of the compounds. The criteria for identifying metabolites were as follows: (1) the ion should be present in the sera or urines of dosed rats, but not in sera or urines from non-dosed rats (2) the ion should be identifiable as a metabolic derivative of the dosed compound (e.g. loss of a functional chemical moiety, addition of a hydroxyl group or a glucuronic acid moiety, etc). Metabolites were determined not to be present if no compound meeting the above criteria could be detected in serum or urine.

[5] = rat, in vivo, po
[6] = test system: rats; assay: Salivary flow in rats dosed orally; format: in vivo, rat
[7] = test system: salivary gland inositol phosphate signaling pathway; assay: In vivo tissue inositol phosphate signaling pathway activation, salivary gland; design: species or system rat; settings: 1 mg/kg of 82
Protocol: (§2) Experimental compounds or drug substances were administered using standard techniques to Long Evans Hooded rats weighing 225 to 350 grams, and which had been pretreated with a subcutaneous injection of lithium chloride at a suitable dose between 3 and 10 mmoles per kg. At suitable times the animals were briefly anesthetized using 5% isoflurane and euthanized by decapitation. The brains and submaxillary salivary glands were rapidly dissected out, and the hippocampuses were dissected from the brains. The dissected tissues were homogenized in a suitable volume of ice-cold phosphate-buffered saline containing 10 mM lithium chloride, pH7.4, using a tissue homogenizer, and used immediately or frozen in aliquots at −80degC. for future use. The concentration of inositol-1-phosphate was determined in the homogenates using the IPOne TR-FRET assay (CisBio cat no 621PAPEB), following the manufacturer's instruction

[8] = test system: hippocampal inositol phosphate signaling pathway; assay: In vivo tissue inositol phosphate signaling pathway activation, hippocampus; design: species or system rat; settings: 1 mg/kg of 82; NMS 0.1 mg/kg
Protocol: as §2

[9] = test system: anesthetized normal rats; assay: In vivo measurement of salivation; design: species or system rat
Protocol: Suitable doses of test compounds or drug substances were administered using standard techniques to Long Evans Hooded rats weighing 225 to 350 grams, or CD-1 mice weighing 30 to 50 grams, which had been anesthetized using 2-3.5%% of isoflurane in oxygen. The animals were placed slightly head-down on an inclined, heated ramp. Rectal temperature was monitored using a thermocouple and the temperature of the heating pad was adjusted manually to maintain normal body temperature. Saliva was collected from the mouth by absorption onto pre-weighed slips of filter paper. The filter paper was changed periodically and the amount of saliva was measured by weighing the filter paper slips

[10] = test system: anesthetized rats; assay: Salivation on iontophoretic transdermal delivery of agonist and antagonist from one patch; format: in vivo, rat; settings: patch with 1 mg of 82 plus 0.01mg antagonist
Protocol: Experimental compounds and drug substances were delivered transdermally in rats using iontophoresis as follows. The fur was shaved from the backs of Long Evans Hooded rats weighing 225 to 325 grams, using electric clippers. Experimental compounds and drug substances were formulated at suitable concentrations an aqueous mixture of the following composition:
The polyvinyl alcohol/water was heated to 95 degC. until it became clear, then the other constituents were added and mixed well. The mixture was introduced into suitable molds containing a disc-shaped cavity 2.2 cm diameter and 2.2 mm deep. Molds may be fabricated using two glass sheets separated by a silicone rubber sheet with suitable sized cavities and filling ports cut-outs. The molds were subject to 3 freeze-thaw cycles at −80degC. and 20degC. until a firm cryogel was obtained. The gels were separated from the molds and trimmed into a circular shape. The gel was placed in a silicone rubber casing with one face in contact with a circular silver foil anodic electrode (22 mm dia/250 microns thick), and the assembly was placed on the shaved skin of the rat such that the other face was in contact with the skin on one side of the back of the rat. The rubber casing formed a seal over and around the gel/electrode assembly. […] This was placed on the other side of the shaved back of the rat, the edges of the gel discs being about 20 mm apart at their nearest point. A DC voltage was applied across the two patches from a constant-current DC power supply and the voltage adjusted to obtain the desired current, such that the skin of the animal completed the electrical circuit.
The devices were placed on shaved backs of anesthetized rats and salivation was measured.
The animals were placed slightly head-down on an inclined, heated ramp. Rectal temperature was monitored using a thermocouple and the temperature of the heating pad was adjusted manually to maintain normal body temperature. Saliva was collected from the mouth by absorption onto pre-weighed slips of filter paper. The filter paper was changed periodically and the amount of saliva was measured by weighing the filter paper slips

SMILES	functional selectivity for M1- versus M3-subtype by PI turnover [1]	M1/CHO PI turnover Relative Mean Smax [1]	M3/CHO PI turnover Relative Mean Smax [2]	Brain Cmax (10 mg/kg po) MCD-386 = 1.00 [3]	penetration into the brain [3]	Presence of metabolites (10 mg/kg po) [4]	also measured
[2H]C([2H])(C)c1noc(C2CN=CNC2)n1 (stereo not drawn) [Compound 66, 3-(2,2-d2-Ethyl)-5-(1,4,5,6-tetrahydropyrimidin-5-yl)-1,2,4-oxadiazole hydrochloride]	M1-subtype functionally selective muscarinic agonists	84.0	15.1	0.82	penetrated into the brain	No metabolites were identified and No	–
[2H]C([2H])([2H])C([2H])([2H])c1noc(C2CN=CNC2)n1 (stereo not drawn) [Compound 70, 3-(1,1,2,2,2-d5-ethyl)-5-(1,4,5,6-tetrahydropyrimidin-5-yl)-1,2,4-oxadiazole hydrochloride]	M1-subtype functionally selective muscarinic agonists	67.7	16.5	0.61	penetrated into the brain	No metabolites were identified and No	–
CNC(=C[N+](=O)[O-])NCCSCc1ccc(CN(C)C)o1 [Ranitidine, reference compound]	–	–	–	–	–	–	PAMPA (? × 106): 0.26 ? × 106; Brain/plasma ratio [5]: Very low
[2H]C([2H])([2H])Cc1noc(C2CN=CNC2)n1 (stereo not drawn) [Compound 78, 3-(2,2,2-d3-Ethyl)-5-(1,4,5,6-tetrahydropyrimidin-5-yl)-1,2,4-oxadiazole hydrochloride]	–	48.9	28.8	–	–	–	–
Cl.[2H]C([2H])([2H])c1noc(C2CN=CNC2)n1 (stereo not drawn) [Compound 74, 3-(d3-methyl)-5-(1,4,5,6-tetrahydropyrimidin-5-yl)-1,2,4-oxadiazole hydrochloride]	not selective for the M1 subtype	98.6	–	–	–	–	agonist efficacy at M1- and M3-subtype muscarinic receptors by PI turnover [1]: near full-agonist; salivary flow [6]: copious salivary flow
C[N+]1(C)[C@@H]2C[C@@H](OC(=O)[C@H](CO)c3ccccc3)C[C@H]1[C@@H]1O[C@@H]12 [NMS, N-methylscopolamine]	–	–	–	–	–	–	block of increase in salivary gland inositol phosphate caused by 82 ([7]; NMS 0.003 mg/kg): some breakthrough activation; block of increase in salivary gland inositol phosphate caused by 82 ([7]; NMS 0.03 mg/kg to 0.01 mg/kg): nearly as effective as 0.1 mg/kg; block of increase in salivary gland inositol phosphate caused by 82 ([7]; antagonist 0.1 mg/kg NMS): completely block; inhibition of increase in inositol phosphate in the hippocampus caused by 82 [8]: does not inhibit; decrease in salivation caused by 82 ([9]; 0.3 mg/kg of 82): dose-dependent decrease in salivation; reduction in salivation caused by MCD-386 ([9]; 1 mg/kg dose of MCD-386): dose-dependent reduction; reduction of salivation caused by transdermal iontophoretic delivery of 82 [10]: greatly reduced
